Data taken from ChEMBL document CHEMBL1201862, “PubChem BioAssay data set” (2004).
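These data come from cells grown in 96-well plates and exposed to compound for 48 hours at five concentrations. Abbreviation: GI50, concentration required for 50% inhibition of growth.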 The source made the active and inactive calls. Rule as the data show it: active = GI50 up to about 1.1 µM and inactive = higher.

Assays:
Experiment in all cases: NCI-60 cell line screen, 48 h
[1] = system: SK-OV-3
[2] = system: 786-0
[3] = system: MDA-MB-231
[4] = system: TK-10
[5] = system: U-251
[6] = system: PC-3
[7] = system: RPMI-8226
[8] = system: HCT-116
[9] = system: SN12C
[10] = system: ACHN
[11] = system: SK-MEL-28
[12] = system: SNB-19
[13] = system: A498
[14] = system: OVCAR-3
[15] = system: OVCAR-4
[16] = system: MDA-N
[17] = system: NCI-H522
[18] = system: IGROV-1
[19] = system: SNB-75
[20] = system: KM12

SMILES | GI50 [1] | GI50 [2] | GI50 [3] | GI50 [4] | GI50 [5] | GI50 [6] | GI50 [7] | GI50 [8] | GI50 [9] | GI50 [10] | GI50 [11] | GI50 [12] | GI50 [13] | GI50 [14] | GI50 [15] | GI50 [16] | GI50 [17] | GI50 [18] | GI50 [19] | GI50 [20]
CC(=O)c1cnc2oc3ccc(O)cc3c2c1-c1ccccc1 | 14 µM (inactive) | 39.4 µM (inactive) | 25.2 µM (inactive) | 28.6 µM (inactive) | 52.4 µM (inactive) | 21.4 µM (inactive) | 18.8 µM (inactive) | 57.1 µM (inactive) | 44.4 µM (inactive) | 21.1 µM (inactive) | 17.5 µM (inactive) | 37.3 µM (inactive) | 17.5 µM (inactive) | 17.3 µM (inactive) | 15 µM (inactive) | 40.1 µM (inactive) | – | – | – | –
O=C(c1ccccc1)c1c(C(F)(F)F)[n+]([O-])c2cc(Cl)c(Cl)cc2[n+]1[O-] | 4.8 µM (inactive) | 0.502 µM (active) | 0.229 µM (active) | 1.07 µM (active) | 1.23 µM (inactive) | 1.18 µM (inactive) | 0.373 µM (active) | 0.528 µM (active) | 0.658 µM (active) | 0.764 µM (active) | 2.86 µM (inactive) | 1.56 µM (inactive) | – | 0.403 µM (active) | 1.56 µM (inactive) | 1.79 µM (inactive) | 0.557 µM (active) | 0.473 µM (active) | 1.31 µM (inactive) | 0.548 µM (active)
CCOC(=O)N(C)C(=C(F)F)C(F)(F)F | 36 µM (inactive) | 21.7 µM (inactive) | 28.5 µM (inactive) | 27.8 µM (inactive) | 30.4 µM (inactive) | 30.9 µM (inactive) | 16.4 µM (inactive) | 20.4 µM (inactive) | > 10 µM (inactive) | > 10 µM (inactive) | 20 µM (inactive) | – | – | 36 µM (inactive) | 28 µM (inactive) | 18.5 µM (inactive) | – | 21.2 µM (inactive) | 29.5 µM (inactive) | 35 µM (inactive)
CCN1C(NCCO)=NS(=O)(=O)c2ccccc21 | > 100 µM (inactive) | > 100 µM (inactive) | > 100 µM (inactive) | > 100 µM (inactive) | > 100 µM (inactive) | > 100 µM (inactive) | – | > 100 µM (inactive) | > 100 µM (inactive) | > 100 µM (inactive) | > 100 µM (inactive) | > 100 µM (inactive) | > 100 µM (inactive) | > 100 µM (inactive) | > 100 µM (inactive) | > 100 µM (inactive) | > 100 µM (inactive) | > 100 µM (inactive) | – | > 100 µM (inactive)
CC(C)(C)OC(=O)Cn1ncn(NC(=O)Cc2ccccc2)c1=O | > 10 µM (inactive) | > 10 µM (inactive) | > 10 µM (inactive) | > 10 µM (inactive) | > 10 µM (inactive) | > 10 µM (inactive) | – | > 10 µM (inactive) | > 10 µM (inactive) | > 10 µM (inactive) | > 10 µM (inactive) | > 10 µM (inactive) | > 10 µM (inactive) | > 10 µM (inactive) | > 10 µM (inactive) | > 10 µM (inactive) | > 10 µM (inactive) | > 10 µM (inactive) | – | > 10 µM (inactive)
CCOC(=O)c1c(N)n(-c2ccccc2)c(=S)n(-c2ccccc2)c1=O | – | > 100 µM (inactive) | > 100 µM (inactive) | > 100 µM (inactive) | > 100 µM (inactive) | – | > 100 µM (inactive) | – | > 100 µM (inactive) | > 100 µM (inactive) | > 100 µM (inactive) | > 100 µM (inactive) | – | > 100 µM (inactive) | > 100 µM (inactive) | > 100 µM (inactive) | > 100 µM (inactive) | > 100 µM (inactive) | > 100 µM (inactive) | > 100 µM (inactive)
CC1=C(c2ccccc2)NC(=S)C(C)C(c2ccccc2)=N1 (stereo not given) | > 100 µM (inactive) | 74.5 µM (inactive) | > 100 µM (inactive) | 58.2 µM (inactive) | 55.6 µM (inactive) | – | 15.4 µM (inactive) | 27.5 µM (inactive) | 56.2 µM (inactive) | 11.7 µM (inactive) | 38.9 µM (inactive) | > 100 µM (inactive) | 27.2 µM (inactive) | – | 17.2 µM (inactive) | 16.9 µM (inactive) | – | 36.9 µM (inactive) | 65.6 µM (inactive) | 21.2 µM (inactive)
COC(=O)c1ccc2c(c1)CC1(C2)Cc2ccc3c(c2C1)CCC3 (stereo not given) | 13.6 µM (inactive) | 23.2 µM (inactive) | 5.07 µM (inactive) | > 100 µM (inactive) | 28.7 µM (inactive) | 6.98 µM (inactive) | 21.3 µM (inactive) | 23.6 µM (inactive) | 18.6 µM (inactive) | 57 µM (inactive) | 86.1 µM (inactive) | 33 µM (inactive) | – | 80.2 µM (inactive) | 0.809 µM (active) | 3.63 µM (inactive) | 20.7 µM (inactive) | 42.8 µM (inactive) | 33.3 µM (inactive) | 12.6 µM (inactive)
COC1CC(OC2C(C)OC(OC3C(C)OC(OC4C(O)CC(O[C@H]5CC[C@@]6(C)C(=CC[C@]7(O)[C@@H]6C[C@@H](OC(=O)/C=C/c6ccccc6)[C@@]6(C)[C@]7(O)CC[C@@]6(O)C(C)=O)C5)OC4C)CC3OC)CC2OC)OC(C)C1O (stereo not given in full) | > 6.25 µM (inactive) | > 6.25 µM (inactive) | > 6.25 µM (inactive) | > 6.25 µM (inactive) | > 6.25 µM (inactive) | > 6.25 µM (inactive) | > 6.25 µM (inactive) | > 6.25 µM (inactive) | > 6.25 µM (inactive) | > 6.25 µM (inactive) | – | > 6.25 µM (inactive) | – | > 6.25 µM (inactive) | > 6.25 µM (inactive) | > 6.25 µM (inactive) | > 6.25 µM (inactive) | > 6.25 µM (inactive) | > 6.25 µM (inactive) | > 6.25 µM (inactive)
COC1OC2COC(=O)c3cc(O)c(O)c(O)c3-c3c(cc(O)c(O)c3O)C(=O)OC2C(O)C1O (stereo not given) | > 100 µM (inactive) | 47.4 µM (inactive) | > 100 µM (inactive) | > 100 µM (inactive) | 61.2 µM (inactive) | > 100 µM (inactive) | 55.7 µM (inactive) | 34.9 µM (inactive) | 16.5 µM (inactive) | 77.8 µM (inactive) | > 100 µM (inactive) | > 100 µM (inactive) | – | 80 µM (inactive) | 31.5 µM (inactive) | 24 µM (inactive) | 94.8 µM (inactive) | > 100 µM (inactive) | 62.8 µM (inactive) | > 100 µM (inactive)
COc1ccc(CCN(C)C(=O)CC(C#N)(c2ccccc2)c2ccc(OC)c(OC)c2)cc1OC (stereo not given) | > 100 µM (inactive) | > 100 µM (inactive) | – | > 100 µM (inactive) | > 100 µM (inactive) | > 100 µM (inactive) | > 46.9 µM (inactive) | > 100 µM (inactive) | > 100 µM (inactive) | > 100 µM (inactive) | > 100 µM (inactive) | > 100 µM (inactive) | > 100 µM (inactive) | > 100 µM (inactive) | > 100 µM (inactive) | > 100 µM (inactive) | > 94.6 µM (inactive) | > 100 µM (inactive) | > 100 µM (inactive) | > 100 µM (inactive)
CC(CC(=O)N1C2CC3CCC2(CS1(=O)=O)C3(C)C)[Si](C)(C)C (stereo not given) | – | > 100 µM (inactive) | > 100 µM (inactive) | > 100 µM (inactive) | > 100 µM (inactive) | 61.5 µM (inactive) | > 100 µM (inactive) | > 100 µM (inactive) | > 100 µM (inactive) | > 100 µM (inactive) | > 100 µM (inactive) | > 100 µM (inactive) | – | > 100 µM (inactive) | – | > 100 µM (inactive) | > 100 µM (inactive) | > 100 µM (inactive) | > 100 µM (inactive) | > 100 µM (inactive)
O=C(O)c1ccc(NNC(=O)c2cccc3c(=O)c4ccccc4[nH]c23)cc1 | > 100 µM (inactive) | > 100 µM (inactive) | 75.3 µM (inactive) | > 100 µM (inactive) | 80.7 µM (inactive) | > 100 µM (inactive) | > 100 µM (inactive) | > 100 µM (inactive) | > 100 µM (inactive) | 74.1 µM (inactive) | > 100 µM (inactive) | > 100 µM (inactive) | – | > 100 µM (inactive) | > 100 µM (inactive) | > 100 µM (inactive) | 25.4 µM (inactive) | > 100 µM (inactive) | > 100 µM (inactive) | > 100 µM (inactive)
C=C1C(C[C@@H]2O[C@H]3C[C@H]4O[C@@]5(C[C@@H]6O[C@]7(C[C@H](C)[C@@H]8O[C@@H]9CC(C(O)CO)O[C@@H]9C[C@@H]8O7)C[C@H](C)[C@@H]6O5)C[C@H]4O[C@H]3[C@H](C)[C@H]2O)O[C@@H](CC[C@@H]2O[C@@H](CC[C@@]34CC5O[C@H]6C(O[C@H]7CC[C@H](CC(=O)OC)O[C@@H]7[C@@H]6O3)[C@H]5O4)CC2=C)C[C@H]1C (stereo not given in full) | 0.000243 µM (active) | < 0.0001 µM (active) | 0.00632 µM (active) | 0.0152 µM (active) | < 0.0001 µM (active) | < 0.0001 µM (active) | < 0.0001 µM (active) | < 0.0001 µM (active) | 0.000211 µM (active) | 0.000658 µM (active) | – | 0.000304 µM (active) | – | < 0.0001 µM (active) | 0.998 µM (active) | < 0.0001 µM (active) | < 0.0001 µM (active) | < 0.0001 µM (active) | 0.000154 µM (active) | < 0.0001 µM (active)
CCN(CC)CCC(=O)/C=C/c1ccc(Cl)c(Cl)c1 | – | 3.31 µM (inactive) | 3.48 µM (inactive) | 2.65 µM (inactive) | 4.76 µM (inactive) | 4.31 µM (inactive) | 0.127 µM (active) | 1.71 µM (inactive) | 1.86 µM (inactive) | 3.03 µM (inactive) | – | 5.79 µM (inactive) | – | 8.61 µM (inactive) | 9.35 µM (inactive) | 2.63 µM (inactive) | 1.58 µM (inactive) | – | – | 2.36 µM (inactive)
